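96-well plates; 48 h exposure; 5 concentrations. Endpoints by linear interpolation between flanking doses. Not reached: highest tested concentration assigned. Abbreviation: GI50, concentration required for 50% inhibition of growth.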 Activity calls are given as the source filed them. No stated cut-off is given here; in the data, active = GI50 up to about 1.1 µM and inactive = higher. Bounds are passed on as bounds.

Test systems include RPMI-8226; UO-31; NCI-H522; SNB-19; RXF 393; MDA-N; CAKI-1; KM12; 786-0; U-251; MDA-MB-435; SW-620; M14; NCI/ADR-RES; MOLT-4; TK-10; Hs-578T; NCI-H23; IGROV-1.
What all share (assay): DTP human tumour cell line panel, 48 h

As usually defined, the GI50 is the concentration at which growth is held to half of that of the control. With `CC1=CC(=O)[C@@H](O)[C@]2(C)[C@H]3[C@@]4(O)OC[C@]35[C@H]([C@@H](C)[C@H]4O)[C@@H](O)C(=O)O[C@@H]5C[C@@H]12`, the GI50 in the experiment with RPMI-8226 was 0.445 µM (active); in the experiment with UO-31 it was 0.416 µM (active); in the experiment with NCI-H522, 0.181 µM (active); in the experiment on SNB-19, 0.115 µM (active); in the experiment on RXF 393, 0.391 µM (active); in the experiment on MDA-N, 0.213 µM (active). Further, the concentration for 50% growth inhibition (GI50) is 0.811 µM (active) in the experiment on CAKI-1; 0.202 µM (active) in the experiment with KM12; 0.349 µM (active) in the experiment on 786-0; 0.0509 µM (active) in the experiment on U-251; 0.232 µM (active) in the experiment with MDA-MB-435; 0.428 µM (active) in the experiment on SW-620. Besides, the GI50 in the experiment on M14 was 0.25 µM (active); in the experiment on NCI/ADR-RES it was 2.29 µM (inactive); in the experiment with MOLT-4, 1.55 µM (inactive); in the experiment with TK-10, 0.338 µM (active); in the experiment on Hs-578T, 0.195 µM (active); with NCI-H23, 0.192 µM (active). Moreover, in the experiment with IGROV-1, the 50% growth inhibitory concentration (GI50) was 0.106 µM (active).

On to `CO/N=C(/C(=O)OC)c1ccccc1COc1cccc(C(F)(F)F)c1`, for which the GI50 in the experiment on RPMI-8226 is 6.18 µM (inactive); in the experiment with UO-31, 39.8 µM (inactive); in the experiment with NCI-H522, 20 µM (inactive); in the experiment on SNB-19, 71.4 µM (inactive); with RXF 393, 26.4 µM (inactive); with MDA-N, 27.4 µM (inactive). Besides, the GI50 was 12.1 µM (inactive) in the experiment with CAKI-1; 18.8 µM (inactive) in the experiment with KM12; 30.7 µM (inactive) in the experiment on 786-0; 36.4 µM (inactive) in the experiment with U-251; 29.3 µM (inactive) in the experiment with MDA-MB-435; 42.5 µM (inactive) in the experiment on SW-620. Also, the GI50 with M14 was 24.6 µM (inactive); in the experiment on NCI/ADR-RES it was 36.9 µM (inactive); in the experiment on MOLT-4 it was 10.6 µM (inactive); with TK-10, 11.4 µM (inactive); with Hs-578T, 25.8 µM (inactive); in the experiment with NCI-H23 it was 27.9 µM (inactive). The GI50 in the experiment with IGROV-1 is 30.2 µM (inactive).

`Cn1c(=O)cc(/N=N\c2ccc(Cl)c(Cl)c2)[nH]c1=O`: the GI50 with RPMI-8226 was 28.3 µM (inactive); in the experiment on UO-31, > 100 µM (inactive); with NCI-H522 it was 25.6 µM (inactive); with SNB-19, 63.8 µM (inactive); with RXF 393, 23.3 µM (inactive); with MDA-N it was 18.7 µM (inactive). Further, the GI50 in the experiment with CAKI-1 is 13.4 µM (inactive); in the experiment on KM12, > 100 µM (inactive); with 786-0, 17.6 µM (inactive); in the experiment with U-251, 23.3 µM (inactive); in the experiment with MDA-MB-435, 21.1 µM (inactive); in the experiment with SW-620, 24.3 µM (inactive). The GI50 was 20.3 µM (inactive) in the experiment with M14; 34.2 µM (inactive) in the experiment on NCI/ADR-RES; 28.6 µM (inactive) with MOLT-4; 23.8 µM (inactive) in the experiment with TK-10; 33.4 µM (inactive) with Hs-578T; 37.3 µM (inactive) in the experiment with NCI-H23. The GI50 with IGROV-1 was 33 µM (inactive).

As for `O=C(NNCC(F)(F)F)c1ccncc1`, the GI50 with RPMI-8226, with UO-31, in the experiment on NCI-H522, in the experiment with SNB-19, in the experiment with RXF 393 and in the experiment with MDA-N was > 100 µM (inactive) in each case. In addition, the GI50 with CAKI-1, with KM12, in the experiment with 786-0, with U-251, in the experiment with MDA-MB-435 and in the experiment with SW-620 was > 100 µM (inactive) each time. In addition, the GI50 in the experiment with M14, in the experiment with NCI/ADR-RES, in the experiment with MOLT-4, with TK-10, with Hs-578T and in the experiment with NCI-H23 was > 100 µM (inactive) in each case. Also, in the experiment with IGROV-1, the GI50 was > 100 µM (inactive).

Turning to `C(=N\Nc1nnc2c(n1)[nH]c1ccccc12)/c1cccnc1`, the GI50 in the experiment with RPMI-8226, in the experiment on UO-31, in the experiment on NCI-H522, in the experiment with SNB-19, in the experiment on RXF 393 and in the experiment on MDA-N was > 100 µM (inactive) in each case. For the same molecule, the GI50 in the experiment with CAKI-1 was > 100 µM (inactive); with KM12 it was 3.69 µM (inactive); in the experiment with 786-0, > 100 µM (inactive); in the experiment on U-251, > 100 µM (inactive); in the experiment on MDA-MB-435, > 100 µM (inactive); with SW-620, > 100 µM (inactive). For the same molecule, the GI50 in the experiment with M14 was 5.07 µM (inactive); in the experiment on NCI/ADR-RES it was > 100 µM (inactive); with MOLT-4, > 100 µM (inactive); with TK-10, > 100 µM (inactive); with Hs-578T it was > 100 µM (inactive); with NCI-H23, > 100 µM (inactive). Moreover, in the experiment with IGROV-1, the GI50 was > 100 µM (inactive).

As for `COCn1c(C)c(C)c2c(=O)oc(N(C)C)nc21`, the GI50 was > 100 µM (inactive) in the experiment with RPMI-8226; 9.82 µM (inactive) in the experiment with UO-31; > 100 µM (inactive) in the experiment with NCI-H522; 67 µM (inactive) in the experiment on SNB-19; > 100 µM (inactive) in the experiment with RXF 393; > 100 µM (inactive) with MDA-N. The GI50 in the experiment on CAKI-1 is 13.6 µM (inactive); in the experiment with KM12, > 100 µM (inactive); in the experiment on 786-0, > 100 µM (inactive); in the experiment with U-251, > 100 µM (inactive); in the experiment on MDA-MB-435 it was > 100 µM (inactive); with SW-620 it was > 100 µM (inactive). For the same molecule, the GI50 with M14, in the experiment with NCI/ADR-RES, in the experiment on MOLT-4, with TK-10, with Hs-578T and in the experiment with NCI-H23 was > 100 µM (inactive) in each case. Moreover, the GI50 in the experiment on IGROV-1 was > 100 µM (inactive).

As for `c1cnc2c(c1)Nc1cnncc1S2`, the GI50 is > 100 µM (inactive) in the experiment with RPMI-8226; 84.1 µM (inactive) with UO-31; > 100 µM (inactive) with NCI-H522; > 100 µM (inactive) with SNB-19; > 100 µM (inactive) in the experiment with RXF 393; > 100 µM (inactive) in the experiment with MDA-N. The GI50 with CAKI-1 was 24.1 µM (inactive); with KM12, > 100 µM (inactive); in the experiment with 786-0 it was > 100 µM (inactive); with U-251, > 100 µM (inactive); with MDA-MB-435, > 100 µM (inactive); with SW-620 it was > 100 µM (inactive). Moreover, the GI50 in the experiment with M14, with NCI/ADR-RES, in the experiment on MOLT-4, in the experiment with TK-10, in the experiment with Hs-578T and in the experiment on NCI-H23 was > 100 µM (inactive) in each case. In addition, in the experiment on IGROV-1, the GI50 was > 100 µM (inactive).

Take `O=C(O)C1CC=CCC1C(=O)Nc1cccc(O)c1` (stereo not given): the GI50 with RPMI-8226, with UO-31, with NCI-H522, in the experiment on SNB-19, in the experiment on RXF 393 and in the experiment on MDA-N was > 100 µM (inactive) in each case. The GI50 with CAKI-1, in the experiment on KM12, with 786-0, in the experiment with U-251, with MDA-MB-435 and in the experiment with SW-620 was > 100 µM (inactive) each time. Moreover, the GI50 in the experiment with M14, with NCI/ADR-RES, with MOLT-4, with TK-10, in the experiment on Hs-578T and with NCI-H23 was > 100 µM (inactive) each time. Moreover, the GI50 with IGROV-1 is > 100 µM (inactive).

Take `CC1c2ccccc2Cn2cc3c(c21)C(=O)c1cccc(OP(=O)(O)OCc2ccccc2)c1C3=O` (stereo not given): the GI50 with RPMI-8226 was > 100 µM (inactive); in the experiment on UO-31 it was > 78.3 µM (inactive); with NCI-H522, > 100 µM (inactive); in the experiment with SNB-19 it was > 100 µM (inactive); with RXF 393, > 100 µM (inactive); in the experiment on MDA-N, > 100 µM (inactive). Also, the GI50 in the experiment on CAKI-1 is > 82.8 µM (inactive); in the experiment with KM12, > 100 µM (inactive); with 786-0, > 100 µM (inactive); with U-251, > 100 µM (inactive); with MDA-MB-435, > 100 µM (inactive); in the experiment on SW-620, > 100 µM (inactive). The GI50 with M14, with NCI/ADR-RES, with MOLT-4, in the experiment with TK-10, in the experiment on Hs-578T and in the experiment with NCI-H23 was > 100 µM (inactive) throughout. Moreover, the GI50 in the experiment with IGROV-1 is > 100 µM (inactive).

As for `COc1ccc(N2C(=O)C3c4[nH]c5ccc(OC)cc5c4C4CCC(C(C)C)CC4C3C2=O)cc1` (stereo not given), the GI50 is > 100 µM (inactive) in the experiment on RPMI-8226; > 100 µM (inactive) in the experiment on UO-31; 18.1 µM (inactive) in the experiment on NCI-H522; 35.6 µM (inactive) with SNB-19; 31 µM (inactive) in the experiment with RXF 393; > 100 µM (inactive) with MDA-N. Also, the GI50 in the experiment on CAKI-1 was > 100 µM (inactive); with KM12 it was > 100 µM (inactive); with 786-0 it was 14.9 µM (inactive); in the experiment on U-251 it was 26.4 µM (inactive); in the experiment with MDA-MB-435 it was > 100 µM (inactive); in the experiment with SW-620, > 75.3 µM (inactive). In addition, the GI50 in the experiment with M14 is 34.1 µM (inactive); with NCI/ADR-RES, > 100 µM (inactive); in the experiment on MOLT-4, 28.8 µM (inactive); in the experiment on TK-10, > 100 µM (inactive); in the experiment with Hs-578T it was 12.1 µM (inactive); with NCI-H23 it was > 100 µM (inactive). Besides, the GI50 in the experiment with IGROV-1 was > 38 µM (inactive).

Values taken from ChEMBL document CHEMBL1201862, “PubChem BioAssay data set” (2004).
